From PMC10924921, “Mi-2β promotes immune evasion in melanoma by activating EZH2 methylation” (Nature Communications, 2024) come the findings set out here.

What all share (assay): biochemical
Design in all cases: KINOMEscan active-site competition binding panel (468 kinase assays), per cent of control at 1000 nM
Holding throughout (conditions): KINOMEscan per cent of control (binding competition); read-out: Percent Control

In one experiment the target is BMPR2 (Homo sapiens, UniProt Q13873). An excerpt: (§1) Figure S7 / Percent Control
In another experiment the target is T1, CDC2L5 (Homo sapiens, UniProt Q14004).
T1 construct: gene CDK13
Text: as §1

Another experiment addresses EPHA8 (Homo sapiens, UniProt P29322).
Text: as §1

Another experiment concerns the target FRK (Homo sapiens, UniProt P42685).
Text: as §1

In another experiment the target is T2, JNK3 (Homo sapiens, UniProt P53779).
T2 construct: gene MAPK10
Text: as §1

The target in another experiment is KIT(L576P) (Homo sapiens, UniProt P10721, L576P).
Text: as §1

The target in another experiment is LIMK1 (Homo sapiens, UniProt P53667).
Text: as §1

Another experiment concerns the target LRRK2(G2019S) (Homo sapiens, UniProt Q5S007, G2019S).
Text: as §1

The target in another experiment is MET(M1250T) (Homo sapiens, UniProt P08581, M1250T).
Text: as §1

For a further experiment, the target named is T3, MKK7 (Homo sapiens, UniProt O14733).
T3 construct: gene MAP2K7
Text: as §1

The target of another experiment is T4, NDR2 (Homo sapiens, UniProt Q9Y2H1).
T4 construct: gene STK38L
Text: as §1

The next experiment concerns the target NEK6 (Homo sapiens, UniProt Q9HC98).
Text: as §1

The target of experiment [1] is T5, RPS6KA4(Kin.Dom.1-N-terminal) (Homo sapiens, UniProt O75676).
T5 construct: Kin.Dom.1-N-terminal
Text: as §1

Experiment [2] concerns the target T6, RPS6KA5(Kin.Dom.2-C-terminal) (Homo sapiens, UniProt O75582).
T6 construct: Kin.Dom.2-C-terminal
Text: as §1

A further experiment addresses SIK2 (Homo sapiens, UniProt Q9H0K1).
Text: as §1

The next experiment addresses TAOK2 (Homo sapiens, UniProt Q9UL54).
Text: as §1

The target in the next experiment is TAOK3 (Homo sapiens, UniProt Q9H2K8).
Text: as §1

For a further experiment, the target named is TLK1 (Homo sapiens, UniProt Q9UKI8).
Text: as §1

The next experiment deals with TNNI3K (Homo sapiens, UniProt Q59H18).
Text: as §1

The next experiment addresses T7, YANK2 (Homo sapiens, UniProt Q9NY57).
T7 construct: gene STK32B
Text: as §1

The next experiment deals with T8, YANK3 (Homo sapiens, UniProt Q86UX6).
T8 construct: gene STK32C
Text: as §1

The target of a further experiment is T9, p38-alpha (Homo sapiens, UniProt Q16539).
T9 construct: gene MAPK14
Text: as §1

Another experiment addresses T10, p38-beta (Homo sapiens, UniProt Q15759).
T10 construct: gene MAPK11
Text: as §1

In the next experiment the target is T11, p38-delta (Homo sapiens, UniProt O15264).
T11 construct: gene MAPK13
Text: as §1

T4 sequence (Q9Y2H1 whole entry): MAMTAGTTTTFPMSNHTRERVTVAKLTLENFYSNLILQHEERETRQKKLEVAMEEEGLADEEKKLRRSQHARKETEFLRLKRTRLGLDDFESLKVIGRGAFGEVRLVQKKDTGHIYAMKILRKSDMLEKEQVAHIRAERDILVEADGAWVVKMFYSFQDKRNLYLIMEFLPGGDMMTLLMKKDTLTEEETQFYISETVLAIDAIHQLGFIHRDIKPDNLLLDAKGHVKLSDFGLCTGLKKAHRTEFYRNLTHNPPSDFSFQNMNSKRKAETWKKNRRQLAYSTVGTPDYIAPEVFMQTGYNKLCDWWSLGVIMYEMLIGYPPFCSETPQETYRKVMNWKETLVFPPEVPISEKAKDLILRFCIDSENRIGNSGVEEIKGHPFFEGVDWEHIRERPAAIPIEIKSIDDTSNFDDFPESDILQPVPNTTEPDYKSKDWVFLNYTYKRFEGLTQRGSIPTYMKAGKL
MET(M1250T), sequence (P08581 whole entry M1250T): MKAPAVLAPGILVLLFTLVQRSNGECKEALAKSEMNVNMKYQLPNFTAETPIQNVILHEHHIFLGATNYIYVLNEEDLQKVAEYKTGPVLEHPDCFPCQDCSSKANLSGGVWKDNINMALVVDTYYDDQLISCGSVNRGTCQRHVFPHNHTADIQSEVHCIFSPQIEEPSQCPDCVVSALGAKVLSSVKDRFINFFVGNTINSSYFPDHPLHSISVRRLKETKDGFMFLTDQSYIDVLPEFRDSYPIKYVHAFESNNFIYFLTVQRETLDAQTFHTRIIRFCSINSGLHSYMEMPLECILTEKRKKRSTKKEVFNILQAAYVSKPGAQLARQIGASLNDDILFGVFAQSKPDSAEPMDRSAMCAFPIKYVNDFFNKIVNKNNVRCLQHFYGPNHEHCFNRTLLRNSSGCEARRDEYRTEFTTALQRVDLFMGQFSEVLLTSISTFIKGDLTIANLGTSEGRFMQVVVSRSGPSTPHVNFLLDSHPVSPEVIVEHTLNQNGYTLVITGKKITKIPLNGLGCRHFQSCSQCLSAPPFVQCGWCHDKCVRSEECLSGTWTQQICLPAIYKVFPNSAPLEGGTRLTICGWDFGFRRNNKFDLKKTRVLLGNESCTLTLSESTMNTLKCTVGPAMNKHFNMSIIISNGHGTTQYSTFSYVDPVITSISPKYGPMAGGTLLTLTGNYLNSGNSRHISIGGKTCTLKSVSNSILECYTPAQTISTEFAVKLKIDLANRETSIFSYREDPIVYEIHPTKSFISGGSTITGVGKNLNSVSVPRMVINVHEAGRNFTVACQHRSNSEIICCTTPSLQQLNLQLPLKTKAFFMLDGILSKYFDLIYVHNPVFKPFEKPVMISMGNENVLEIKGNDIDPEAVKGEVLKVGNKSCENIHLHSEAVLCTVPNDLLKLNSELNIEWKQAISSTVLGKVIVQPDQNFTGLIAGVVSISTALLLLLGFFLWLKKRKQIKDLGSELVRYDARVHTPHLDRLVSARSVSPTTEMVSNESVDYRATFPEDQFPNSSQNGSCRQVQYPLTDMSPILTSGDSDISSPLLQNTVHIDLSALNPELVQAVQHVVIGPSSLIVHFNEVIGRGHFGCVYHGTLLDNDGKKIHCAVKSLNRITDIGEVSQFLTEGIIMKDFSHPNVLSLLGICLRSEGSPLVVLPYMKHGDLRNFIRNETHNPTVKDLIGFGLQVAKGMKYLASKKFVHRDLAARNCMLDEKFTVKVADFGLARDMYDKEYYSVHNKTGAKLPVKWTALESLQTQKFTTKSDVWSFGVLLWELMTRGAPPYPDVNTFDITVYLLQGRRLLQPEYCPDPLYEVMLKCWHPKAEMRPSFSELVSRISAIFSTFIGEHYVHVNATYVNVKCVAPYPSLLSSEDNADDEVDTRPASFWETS
T5 sequence (O75676 whole entry): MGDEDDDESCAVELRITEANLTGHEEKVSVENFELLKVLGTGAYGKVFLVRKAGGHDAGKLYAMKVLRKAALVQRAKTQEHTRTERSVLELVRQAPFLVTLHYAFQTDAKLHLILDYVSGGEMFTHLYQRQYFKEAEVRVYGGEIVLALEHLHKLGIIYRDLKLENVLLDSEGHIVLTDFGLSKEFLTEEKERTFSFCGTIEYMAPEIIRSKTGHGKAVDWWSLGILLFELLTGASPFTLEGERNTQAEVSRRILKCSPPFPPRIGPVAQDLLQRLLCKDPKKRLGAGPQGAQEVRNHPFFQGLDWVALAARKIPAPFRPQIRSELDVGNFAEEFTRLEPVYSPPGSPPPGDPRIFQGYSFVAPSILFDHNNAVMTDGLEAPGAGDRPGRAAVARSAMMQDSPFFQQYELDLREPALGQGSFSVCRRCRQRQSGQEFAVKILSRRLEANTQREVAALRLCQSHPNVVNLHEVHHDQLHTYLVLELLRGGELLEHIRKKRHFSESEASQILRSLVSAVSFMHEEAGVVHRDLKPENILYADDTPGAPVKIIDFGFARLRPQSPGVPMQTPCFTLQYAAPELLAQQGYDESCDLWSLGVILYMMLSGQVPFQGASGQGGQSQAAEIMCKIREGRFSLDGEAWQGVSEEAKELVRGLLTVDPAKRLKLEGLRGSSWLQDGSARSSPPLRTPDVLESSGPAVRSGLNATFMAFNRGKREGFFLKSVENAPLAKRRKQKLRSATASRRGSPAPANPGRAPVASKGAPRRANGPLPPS
T10 sequence (Q15759 whole entry): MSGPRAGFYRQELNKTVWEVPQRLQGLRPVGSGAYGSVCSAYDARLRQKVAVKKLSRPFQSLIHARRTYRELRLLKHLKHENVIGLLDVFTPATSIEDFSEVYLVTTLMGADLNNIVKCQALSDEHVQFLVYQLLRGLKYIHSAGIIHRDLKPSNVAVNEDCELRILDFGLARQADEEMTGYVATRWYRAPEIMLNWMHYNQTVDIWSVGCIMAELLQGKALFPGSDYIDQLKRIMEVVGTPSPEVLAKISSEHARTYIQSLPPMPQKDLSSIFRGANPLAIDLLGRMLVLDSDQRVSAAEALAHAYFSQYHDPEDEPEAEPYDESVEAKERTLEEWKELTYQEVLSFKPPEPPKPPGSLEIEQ
TLK1, sequence (Q9UKI8 whole entry): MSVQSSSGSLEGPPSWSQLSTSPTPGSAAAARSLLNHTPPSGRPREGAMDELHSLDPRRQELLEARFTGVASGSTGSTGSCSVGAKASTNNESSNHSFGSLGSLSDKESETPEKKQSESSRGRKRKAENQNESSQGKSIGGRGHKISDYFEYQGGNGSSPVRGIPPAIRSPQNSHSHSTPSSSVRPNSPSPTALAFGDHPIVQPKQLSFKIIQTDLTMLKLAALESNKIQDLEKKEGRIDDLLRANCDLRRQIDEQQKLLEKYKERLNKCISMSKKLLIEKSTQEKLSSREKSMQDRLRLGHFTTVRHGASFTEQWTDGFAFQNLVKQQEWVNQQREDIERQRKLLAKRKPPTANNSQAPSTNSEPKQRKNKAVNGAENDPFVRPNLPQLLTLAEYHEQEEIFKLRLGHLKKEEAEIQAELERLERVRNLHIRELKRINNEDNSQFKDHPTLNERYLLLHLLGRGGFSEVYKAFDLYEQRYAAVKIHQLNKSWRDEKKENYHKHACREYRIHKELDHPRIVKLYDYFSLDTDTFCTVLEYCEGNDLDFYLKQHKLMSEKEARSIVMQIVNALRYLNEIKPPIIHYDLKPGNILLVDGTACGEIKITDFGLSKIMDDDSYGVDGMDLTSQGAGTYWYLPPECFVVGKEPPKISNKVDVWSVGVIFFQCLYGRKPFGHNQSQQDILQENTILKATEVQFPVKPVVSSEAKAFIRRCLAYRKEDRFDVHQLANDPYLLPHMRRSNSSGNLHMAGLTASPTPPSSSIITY
TAOK2, sequence (Q9UL54 whole entry): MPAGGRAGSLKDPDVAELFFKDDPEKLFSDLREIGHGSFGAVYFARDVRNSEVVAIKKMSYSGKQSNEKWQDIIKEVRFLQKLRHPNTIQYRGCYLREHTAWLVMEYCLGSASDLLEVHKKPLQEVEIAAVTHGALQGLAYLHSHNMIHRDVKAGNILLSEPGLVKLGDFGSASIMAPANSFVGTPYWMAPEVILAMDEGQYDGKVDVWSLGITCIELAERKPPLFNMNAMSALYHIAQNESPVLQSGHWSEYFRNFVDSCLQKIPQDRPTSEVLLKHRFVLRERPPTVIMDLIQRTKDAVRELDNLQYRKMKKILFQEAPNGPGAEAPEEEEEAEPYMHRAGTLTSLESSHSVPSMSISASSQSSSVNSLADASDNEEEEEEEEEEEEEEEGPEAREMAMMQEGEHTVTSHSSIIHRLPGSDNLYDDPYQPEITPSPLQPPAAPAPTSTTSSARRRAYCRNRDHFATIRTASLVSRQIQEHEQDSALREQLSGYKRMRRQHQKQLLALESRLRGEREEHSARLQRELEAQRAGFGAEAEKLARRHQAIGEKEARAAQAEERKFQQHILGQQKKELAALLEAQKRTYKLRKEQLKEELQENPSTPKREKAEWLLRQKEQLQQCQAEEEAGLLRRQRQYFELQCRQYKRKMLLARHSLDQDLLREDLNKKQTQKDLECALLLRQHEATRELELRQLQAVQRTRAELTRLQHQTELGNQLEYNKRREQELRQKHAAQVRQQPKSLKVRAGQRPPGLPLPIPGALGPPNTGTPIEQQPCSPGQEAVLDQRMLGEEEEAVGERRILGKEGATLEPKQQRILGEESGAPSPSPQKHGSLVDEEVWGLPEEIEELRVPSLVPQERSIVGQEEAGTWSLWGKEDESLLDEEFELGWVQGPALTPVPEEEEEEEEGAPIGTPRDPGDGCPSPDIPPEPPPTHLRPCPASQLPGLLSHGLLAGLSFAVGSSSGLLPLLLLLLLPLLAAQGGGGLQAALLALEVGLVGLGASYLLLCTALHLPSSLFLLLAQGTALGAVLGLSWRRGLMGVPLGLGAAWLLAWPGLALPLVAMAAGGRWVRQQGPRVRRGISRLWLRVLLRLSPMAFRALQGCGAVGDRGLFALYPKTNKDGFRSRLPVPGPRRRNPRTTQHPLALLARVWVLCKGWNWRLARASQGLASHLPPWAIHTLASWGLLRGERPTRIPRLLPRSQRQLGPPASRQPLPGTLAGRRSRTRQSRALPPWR

With `Cn1c(=O)[nH]c2ccc(-c3cccc(C(=O)NC4CCn5ccnc5C4)c3)cc21` (stereo not drawn) [Z36-MP5], the remaining binding at 1 µM on BMPR2 was determined as 62%; at CDC2L5, 55%; on EPHA8 it was 75%; at FRK it was 100%; on JNK3, 100%; at KIT(L576P) it was 74%. In addition, the remaining binding at 1 µM amounted to 85% on LIMK1; 59% on LRRK2(G2019S); 88% on MET(M1250T); 72% on MKK7; 74% at NDR2; 83% on NEK6. Also, the remaining binding at 1 µM worked out at 90% in [1]; 51% in experiment [2]; 81% at SIK2; 87% on TAOK2; 54% at TAOK3; 90% on TLK1. Moreover, the remaining binding at 1 µM at TNNI3K was determined as 96%; at YANK2 it was 56%; on YANK3, 94%; at p38-alpha it was 63%; at p38-beta it was 87%; at p38-delta, 98%.
